# Test results published in patent publication US20190106697A1, “Inhibition Of Lactate Transporters For Use In The Treatment Of Inflammatory Diseases” (Queen Mary University of London, priority 2014, published 2019).
# Experiments:
# naive T-cells = assay: In vitro chemotaxis of naive T-cells towards CCL19/21; assay type: cell-based, mouse; conditions: CCL19/21 200 ng/ml each; Rapamycin 200 nM, 2-DG 1 mM, Metformin 2 mM
# Description: (§1) T-cell isolation, in-vitro activation and subset enrichment: T-cells were isolated from C57BL/6 murine lymph nodes and activated for 3 to 5 days with plate bound anti-CD3 and anti-CD28 antibodies (BioLegend), and IL-2 (PeproTech). CD4+ and CD8+ subsets were enriched with commercially available CD4+ and CD8+ T-cell isolation kits according to the manufacturer's instructions (Easysep, Invitrogen) either prior or post activation according to experimental settings. Chemokinesis assays: Chemokinesis assays were performed in 5 μm transwell inlays. In some experiments, T-cells were pre-treated overnight with a number of drugs purchased from Calbiochem: Rapamycin (200 nM), 2-DG (1 mM), Metformin (2 mM). […] 3×10^6 lymphocytes were seeded in the upper transwell chamber; chemokines were added to the lower chamber: CXCL10 (300 ng/ml), CCL5 (50 ng/ml), CCL19/21 (200 ng/ml of each chemokine). Migrated T-cells were counted with a hemocytometer 2, 4 and 6 hours after seeding and % of migrated cells was calculated.
# activated CD4+ T-cells [1] = assay: In vivo peritoneal recruitment model (CXCL10 i.p.) of pre-treated activated CD4+ T-cells; conditions: cells pre-treated with Rapamycin 200 nM, 2-DG 1 mM, Metformin 2 mM; CXCL10 120 ng/mouse i.p.
# Description: In vivo peritoneal recruitment model: All the in vivo experiments were conducted under the UK Home Office regulation (PPL 70/7443). Activated T-cells (5×10^6/mouse) were pre-treated overnight with Rapamycin (200 nM), 2-Deoxyglucose (1 mM) or Metformin (2 mM), then labelled with the fluorescent cell dye DDAO (Invitrogen) and injected intravenously into syngeneic female C57BL/6 mice that had 3 hours prior received an intraperitoneal injection of CXCL10 (120 ng/mouse). 24 hours after injection, mice were sacrificed and spleen and peritoneal lavage were harvested. T-cells were stained for surface markers (CD4 and CD8, ebiosciences) and analysed by FACS. Cells were first gated on CD4 and subsequently analysed for DDAO positivity. This method was used in FIG. 3G and S3E.
# activated CD4+ T-cells [2] = assay: Extracellular acidification rate (ECAR), Seahorse analyzer, CD4+ T-cells; assay type: cell-based, mouse; conditions: for effect on glycolysis (ECAR trace) of metabolic drugs: 2-DG 1 mM, Rapamycin 200 nM, Metformin 2 mM, Etomoxir 100 μM
# Description: (§2) Measurement of lactate, glycolysis, glucose uptake/flux and cell death: Lactate concentration was measured in the synovial fluid or peritoneal lavage using the Lactate assay Kit (Biovision), according to the manufacturer's instructions. Glycolytic metabolism was measured with a Seahorse XF24 Extracellular Flux Analyzer. Briefly, T-cells were grown in high glucose RPMI-1640 supplemented with 10% FCS. […] T-cell viability upon lactate or metabolic drug treatment was assessed by trypan blue exclusion assay.
# activated CD4+ T-cells [3] = assay: In vitro chemokinesis of activated CD4+ T-cells towards CXCL10 (transwell); assay type: cell-based, mouse; conditions: for chemokinesis in vitro towards CXCL10 of pre-treated activated CD4+ T-cells: pre-treated overnight: Rapamycin 200 nM, 2-DG 1 mM, Metformin 2 mM
# Description: as §1
# [4] = tested on: CD4+ and CD8+ T-cells in the peritoneum; assay: Zymosan-induced peritonitis: T-cells in peritoneal lavage; assay type: in vivo, mouse; conditions: i.p. day 5 after zymosan, phloretin 50 μM, antibody 5 μg/ml, 24 h
# Description: The inventors used a well-established mouse model of zymosan-induced peritonitis, in which T-cells are recruited to the inflamed site 5 days after zymosan injection (Montero-Melendez et al 2011 Am J Pathol 179: 259-269). C57BL/6 mice were injected in the peritoneal cavity with zymosan (1 mg/mouse) on day 0 or left untreated. On day 5, Phloretin, an anti-Slc5a12 antibody or an isotype control antibody were injected into the peritoneal cavity. 24 hours later, mice were sacrificed and the peritoneal lavage was harvested.
# (§3) In vivo zymosan-induced peritonitis: C57BL/6 mice were injected in the peritoneal cavity with zymosan (1 mg per mouse) on day 0 or left untreated. On day 5, Phloretin (50 μM), anti-Slc5a12 antibody (5 μg/ml) or anti-rabbit IgG isotype control antibody (5 μg/ml; Invitrogen) were injected into the peritoneal cavity. 24 hours later, mice were sacrificed and the peritoneal lavage was harvested. T-cells were stained for surface markers (CD4 and CD8; ebiosciences) and analyzed by FACS. This method was used in FIG. 6B and S6A-B. Alternatively C57BL/6 mice were injected in the peritoneal cavity with zymosan (1 mg per mouse) on day 0. […] T-cells were stained for surface markers (CD4 and CD8; ebiosciences) and analyzed by FACS. Cells were first gated on CD4 and subsequently analysed for CFSE positivity. […]
# Slc16a1 on CD8+ T-cells = molecular target: T1, Slc16a1 on CD8+ T-cells (Mus musculus, UniProt P53986); assay: Blockade of Slc16a1: chemokinesis of CD8+ T-cells exposed to lactic-acid; assay type: cell-based; conditions: lactic-acid 10 mM; CHC 425 μM, phloretin 25 μM, antibody 2.5 μg/ml, AR-C155858 increasing concentrations
# T1 construct: endogenous in cells
# T1 sequence (P53986 1-493): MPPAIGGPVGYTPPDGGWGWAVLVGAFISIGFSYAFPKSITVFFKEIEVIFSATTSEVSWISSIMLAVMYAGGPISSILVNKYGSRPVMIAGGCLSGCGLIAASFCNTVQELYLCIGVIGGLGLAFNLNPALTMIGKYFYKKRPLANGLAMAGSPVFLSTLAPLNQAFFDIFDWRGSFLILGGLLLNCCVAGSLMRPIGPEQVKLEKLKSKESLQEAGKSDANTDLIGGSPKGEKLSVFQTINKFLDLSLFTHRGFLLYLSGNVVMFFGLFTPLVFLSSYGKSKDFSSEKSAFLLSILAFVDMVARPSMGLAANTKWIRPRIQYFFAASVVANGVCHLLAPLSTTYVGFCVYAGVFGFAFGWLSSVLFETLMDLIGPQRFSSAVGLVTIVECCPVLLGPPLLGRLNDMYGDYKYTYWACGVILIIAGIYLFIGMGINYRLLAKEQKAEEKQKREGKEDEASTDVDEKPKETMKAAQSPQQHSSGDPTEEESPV
# T1 sequence (P18572 140-389 partner limits assumed): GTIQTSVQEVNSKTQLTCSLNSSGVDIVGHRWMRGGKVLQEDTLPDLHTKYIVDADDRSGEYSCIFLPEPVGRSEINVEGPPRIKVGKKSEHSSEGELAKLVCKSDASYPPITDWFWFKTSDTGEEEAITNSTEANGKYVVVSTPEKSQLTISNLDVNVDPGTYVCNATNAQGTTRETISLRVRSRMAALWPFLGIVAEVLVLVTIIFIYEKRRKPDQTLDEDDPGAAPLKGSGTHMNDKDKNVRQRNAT
# Description: as §1
# [5] = tested on: CFSE-labelled CD4+ T-cells; assay: Zymosan-induced peritonitis: adoptive transfer of CFSE-labelled CD4+ T-cells; assay type: in vivo, mouse; conditions: co-injected i.p. day 5 after zymosan; 24 h
# Description: To establish that the decrease in T-cell localization to the peritoneal cavity was at least in part due to their increased release from this site, the inventors performed adoptive transfer experiments whereby CFSE-labelled CD4+ T-cells were co-injected with anti-Slc5a12 antibody, phloretin or an isotype control antibody in the peritoneal cavity of mice which had received zymosan (1 mg/mouse) 5 days before, to create an environment rich of lactate (FIG. 12A). 24 hours after the intra-peritoneal injection of CFSE-labelled CD4+ T-cells, mice were sacrificed, and peritoneal lavage and spleen were harvested.
# as §3, with “FACS.” for “FACS. This method was used in FIG. 6B and S6A-B. Alternatively C57BL/6 mice were injected in the peritoneal cavity with zymosan (1 mg per mouse) on day 0.”
# activated CD4+ T-cells [6] = assay: Intracellular staining of IL-17 in activated CD4+ T-cells; assay type: cell-based, mouse; conditions: sodium-lactate 10 mM vs untreated
# Description: Intracellular protein staining: Differentiated T-cells were incubated in permeabilization/fixation buffer (ebioscience) overnight at 4° C. Samples were washed in permeabilization buffer (ebioscience) and stained for the cytokines IFN-γ and IL-17, using fluorescently conjugated primary antibodies (1:200, ebiosciences) at 4° C. for 30 minutes, and assessed by flow cytometry using a LSR Fortessa (BD Biosciences) and FlowJo version 7.6.5 software.
# [7] = tested on: CD4+ subsets Th0, Th1, Th2 and Th17; assay: qRT-PCR of cytokines and Rorc in Th0, Th1, Th2, Th17 subsets; assay type: cell-based, mouse; conditions: sodium-lactate 10 mM
# Description: RNA isolation and reverse transcription: RNA was isolated from 10^6 cells or 10 mg RA synovial tissue using commercially available kits (Qiagen) or Trizol (Life) according to the manufacturer's instructions and assessed for quality and quantity using absorption measurements. Reverse transcription to cDNA was performed according to the manufacturer's instruction (Applied Biosystems).
# qRT-PCR: Gene expression analysis was done using SYBR Green Supermix (Biorad) in CFX connect light cycler (Biorad), according to the manufacturer's instructions. Gene relative expression was calculated using the rlAct method and normalized to a reference control (RplpO). Primers for qRT-PCR were designed with the assistance of online tools (Primer 3PIus) using at least one exon junction binding site per primer pair where possible. A complete list of primers used is available in Table 2 below. Gene accession numbers are shown according to GenBank.
# Th subset differentiation: T-cells were isolated from murine lymph nodes and enriched for CD3+ and subsequently CD4+ subsets. 10^6 cells were plated/well and differentiated towards Th0, Th1, Th2 and Th17 phenotype. Conditions were: Th0 (10 ng/ml IL-2); Th1 (10 ng/ml IL-2; 3.4 ng/ml IL-12; 2 μg/ml Anti-IL-4); Th2 (10 ng/ml IL-2; 10 ng/ml IL-4; 2 μg/ml Anti-IFN-γ); Th17 (10 ng/ml IL-6; 2 μg/ml Anti-IL-4; 2 μg/ml Anti-IFN-γ, 5 ng/ml TGF-β). All antibodies and cytokines were purchased from PeproTech.
# activated CD8+ T-cells = assay: In vitro chemokinesis of activated CD8+ T-cells towards CXCL10 (transwell); assay type: cell-based, mouse; conditions: 10 mM lactic acid or sodium lactate; CXCL10 300 ng/ml
# Description: as §1
# activated CD4+ T-cells [8] = assay: Western blot of glycolytic enzymes in activated CD4+ T-cells treated with CXCL10; assay type: cell-based, mouse; conditions: CXCL10 1000 ng/ml; sodium-lactate 10 mM
# Description: Western blot: Protein lysates were prepared from activated T-cells in RIPA buffer. Proteins were separated with SDS-PAGE and transferred to a Nylon membrane (GE Healthcare). Membranes were blocked for 2 h at room temperature in 5% Milk/TBST, incubated overnight at 4° C. with primary antibodies (1:1000) and subsequently with HRP-conjugated secondary antibody (Amersham Bioscience) (1:5000). Antibodies against hexokinase 1, pyruvate kinase M1/2, Aldolase A, Enolase 1 and 6-actin were purchased from Cell Signaling; antibodies against Slc16a1 and Slc5a12 were purchased from Abeam.
# activated CD4+ T-cells [9] = assay: Glucose uptake and flux with 2-NBDG / 6-NBDG in CD4+ T-cells; assay type: cell-based, mouse; conditions: 10 mM; 2-NBDG and 6-NBDG probes
# Description: as §2
# activated CD4+ T-cells [10] = assay: CCL5-induced chemokinesis of activated CD4+ T-cells; assay type: cell-based, mouse; conditions: 10 mM; CCL5 50 ng/ml
# Description: as §1
compound,measurement,setting,value
"O=CC[C@@H](O)[C@H](O)[C@H](O)CO [2-DG, 2-deoxyglucose]",naive T-lymphocyte motility,naive T-cells,decrease
same,chemokinesis in vivo: T-cell recruitment to the peritoneum,activated CD4+ T-cells [1],decrease
same,effect on glycolysis (ECAR trace) of metabolic drugs,activated CD4+ T-cells [2],inhibition of glycolysis
same,chemokinesis in vitro towards CXCL10 of pre-treated activated CD4+ T-cells,activated CD4+ T-cells [3],decrease
O=C(CCc1ccc(O)cc1)c1c(O)cc(O)cc1O [phloretin],CD8+ T-cells in the peritoneum,[4],significant decrease
same,CD4+ T-cells in the peritoneum,[4]; vs isotype control,did not show any effect
same,chemokinesis of CD8+ T-cells exposed to lactic-acid upon blockade of Slc16a1,Slc16a1 on CD8+ T-cells,restored
same,adoptively transferred T-cells in the peritoneum,[5],not
same,adoptively transferred T-cells in the spleen,[5],not
CCOC(=O)[C@@]1(CCCCCCOc2ccc(Cl)cc2)CO1 [etomoxir],effect on glycolysis (ECAR trace) of metabolic drugs,activated CD4+ T-cells [2],only minor effects
"N#CC(=Cc1ccc(O)cc1)C(=O)O [CHC, α-cyano-4-hydroxycinnamate]",chemokinesis of CD8+ T-cells exposed to lactic-acid upon blockade of Slc16a1,Slc16a1 on CD8+ T-cells,restored
CC(O)C(=O)[O-].[Na+] (stereo not drawn) [sodium-lactate],expression of IL-17 protein in CD4+ cells,activated CD4+ T-cells [6],increased
same,IL-17 gene expression in Th subsets,[7]; all the Th subsets,significant up-regulation
same,Rorc gene expression in Th subsets,[7]; all the Th subsets,significantly elevated
same,gene expression of Th1 and Th2 signature cytokines,"[7]; reduced: IL-4, IL-5, IL-13 in Th17 subset",unmodified upon treatment with sodium-lactate or even reduced
same,glycolysis (ECAR) of CXCL10-stimulated CD4+ T-cells,"activated CD4+ T-cells [2]; CXCL10 1000 ng/ml, sodium-lactate 10 mM",shut down glycolysis
same,"ECAR of CD4+ T-cells, basal conditions","activated CD4+ T-cells [2]; sodium-lactate 10 mM, untreated control average 14 mpH/min",less than 5 mpH/min
same,CXCL10-induced chemokinesis of activated CD4+ T-cells,"activated CD4+ T-cells [3]; 10 mM lactic acid or sodium lactate, CXCL10 300 ng/ml",inhibited
same,EC50,"activated CD4+ T-cells [3]; increasing concentration of sodium lactate, CXCL10 300 ng/ml, read-out: EC50 for decrease of migration of CD4+ T-cells",~10 mM
same,CXCL10-induced chemokinesis of activated CD8+ T-cells,activated CD8+ T-cells,not vice versa
same,CXCL10-induced upregulation of glycolytic enzymes,activated CD4+ T-cells [8],inhibited
same,glucose uptake and flux through glycolysis in CD4+ T-cells,activated CD4+ T-cells [9],selectively blocks
same,CCL5-induced migration of CD4+ T-cells,activated CD4+ T-cells [10],decreased
CN(C)C(=N)N=C(N)N [metformin],naive T-lymphocyte motility,naive T-cells,reduced
same,chemokinesis in vivo: T-cell recruitment to the peritoneum,activated CD4+ T-cells [1],increased
same,effect on glycolysis (ECAR trace) of metabolic drugs,activated CD4+ T-cells [2],activation of glycolysis
same,chemokinesis in vitro towards CXCL10 of pre-treated activated CD4+ T-cells,activated CD4+ T-cells [3],increased
